Results reported in article PMC10958470 (Virus Research, 2024).
Entries after “also recorded” stand apart in the source; their conditions may differ. Like-named read-outs stand apart in the source and are kept apart here.

What was measured:
[1] = biological target: SARS-CoV-2 RdRp nsp12/7/8 complex (Severe acute respiratory syndrome coronavirus 2, UniProt P0DTD1); test: biochemical; format: biochemical; settings: for IC50: RdRp IC50 [µM]; for inhibition at 20 µM: read-out: RdRp Inhibition [%] 20 µM (PS Inhibition RdRp [%])
[2] = biological target: SARS-CoV-2 helicase (nsp13) (Severe acute respiratory syndrome coronavirus 2, UniProt P0DTD1); test: biochemical; format: biochemical; settings: for inhibition at 2.5 µM: read-out: DTT Helicase unwinding inhibition [%] 2.5 µM triplicates
RdRp complex = RdRp complex (Severe acute respiratory syndrome coronavirus 2, UniProt P0DTD1); format: binding, SARS-CoV-2
GTPase dynamin = settings: read-out: IC50 GTPase dynamin; ref Medchemexpress, 2023; cited from earlier work
[3] = biological target: SARS-CoV-2 nsp13 NTPase activity (Severe acute respiratory syndrome coronavirus 2, UniProt P0DTD1); test: biochemical; format: biochemical
SARS-CoV-2 helicase = SARS-CoV-2 helicase (Severe acute respiratory syndrome coronavirus 2, UniProt P0DTD1); format: binding
SARS-CoV-2 RdRp = settings: biochemical readout; ref Yin et al., 2021; cited from earlier work
[4] = read-out: Helicase Inhibition [%] 20 µM (PS Inhibition Helicase [%])

Structure (SMILES) | change of RdRp IC50 with increasing ATP concentration [1] | change of RdRp IC50 with increasing oligo-U concentration [1] | IC50 [1] [µM] | inhibition at 20 µM [1] [%] | inhibition at 20 µM [2, 4] [%] | PicoGreen effect [%] 20 µM (annealed dsDNA substrate) [%] | RdRp Tm °C 20 µM (RdRp complex) [°C] | RdRp Tm °C 100 µM (RdRp complex) [°C] | effect on RdRp melting temperature (RdRp complex) | DTT nsp13 inhibition [%] 20 µM (DTT HC Helicase inhibition [%]) [2] [%] | inhibition at 2.5 µM [2] [%] | DTT Helicase ATPase activity PLUS DNA substrate 2 µM [3] | DTT Helicase ATPase activity [%] 2 µM [3] [%] | Helicase Tm °C 20 µM (SARS-CoV-2 helicase) [°C] | Helicase Tm °C 100 µM (SARS-CoV-2 helicase) [°C] | effect on helicase Tm (SARS-CoV-2 helicase) | also measured
O=C(N/N=C/c1ccc(O)c(O)c1)c1cc2ccccc2cc1O [dynasore] | did not detect any change | gain of potency in the presence of 3 µM oligo-U | 6.22 | 96.1 | 7.02 | 6.63 | 43.3 | 44.5 | concentration-dependent protein stabilizing effect |  |  |  |  |  |  |  | increase of Tm of RdRp (RdRp complex): about 1.5 K; IC50 (GTPase dynamin): 15 µM
O=c1c(O)c(-c2ccc(O)c(O)c2)oc2cc(O)ccc12 [fisetin (fustel), fisetin] |  |  | 2.17 | 95.8 | 39.3 | 4.99 | 42.7 | 43.5 |  |  |  |  |  |  |  |  | 
O=c1c(O)c(-c2cc(O)c(O)c(O)c2)oc2cc(O)cc(O)c12 [myricetin (cannabiscetin), myricetin] |  |  |  |  | 100 |  | 42.7 | 43.6 | no shift in Tm | 67.25 | 22.1 | 77.50 | 62.36 | 38.3 | 38.8 | did not result in a Tm change | inhibition at 20 µM ([2]; read-out: DTT nsp13 inhibition [%] 20 µM (DTT HC Helicase inhibition [%])): > 50%
Cc1ccc(C(=O)Nc2ccc(S(=O)(=O)O)c3cc(S(=O)(=O)O)cc(S(=O)(=O)O)c23)cc1NC(=O)c1cccc(NC(=O)Nc2cccc(C(=O)Nc3cc(C(=O)Nc4ccc(S(=O)(=O)O)c5cc(S(=O)(=O)O)cc(S(=O)(=O)O)c45)ccc3C)c2)c1 [suramin hexasodium] | no changes in IC50 | no changes in IC50 | 0.24 |  | 98 |  | 44.3 | 46.6 | increase in melting temperature; also recorded: concentration-dependent protein stabilizing effect | 92.60 | 53.1 | 63.38 | 121.61 | 36.8 | 36.5 | decrease in Tm | RdRp Inhibition [%] 20 µM (PS Inhibition RdRp [%]) [1]: 98.49%; IC50 ([2]; DTT Helicase IC50 [µM]): 5.42 µM; inhibition of helicase NTPase activity, 2 mM DTT [3]: only active in presence of dsDNA substrate; inhibition of helicase NTPase activity, absence of DTT [3]: showed inhibition in absence of DTT, independent of the presence of the dsDNA substrate; fold stronger inhibition of SARS-CoV-2 RdRp compared to Remdesivir (SARS-CoV-2 RdRp): 20 fold
